Test system: NEMO oligomerization (CFP-NEMO / YFP-NEMO)
Experiment: FRET between CFP-NEMO and YFP-NEMO in lysates of doubly transfected Nemo-/- MEF cells
Assay type: cell-based, murine
Conditions: pECFP-Nemo and pEYFP-Nemo doubly transfected Nemo-/- MEF cells; 30 min incubation with IL-1β (10 ng/ml); excitation 433 nm
Method: Rat-1, M319-5b (see supplementary data), 5R fibroblast and wild type, Ikkα^−/−Ikkβ^−/− and Nemo^−/− MEF cells were grown in Dulbecco's modified Eagle's medium supplemented with 10% fetal bovine serum. For 5R cells, 20% 5R conditioned medium was added to fresh culture medium. Transfections using Fugene 6 (Roche) were performed according to the manufacturer protocol using, per well of a 6 well-plate, 2 μg of pECFP-Nemo or pEYFP-Nemo plasmid (single transfection) or 1 μg each (double transfection). For plasmid obtaining, see supplementary data. In NF-κB complementation assays 100 ng of pEF1-lacZ (marker for transfection efficiency) and Igκ-luciferase plasmids were added to the transfection mix. Cell fluorescence was controlled with an Axiovert 200 (Zeiss) inverted microscope one day after transfection.
Cells transfected with the lacZ and the Igκ-luciferase plasmids were trypsinated, pelleted and resuspended in fresh culture medium. Cell suspension was stimulated by IL-1β (BD, Biosciences, 10 ng/ml) or TNFα (BD Biosciences, 20 ng/ml) for 30 min at 37° C. […] Kinase activity in cytosolic extracts or glycerol gradient fractions was detected as described by Yamaoka, S., Courtois, G., Bessia, C., Whiteside, S. T., Weil, R., Agou, F., Kirk, H. E., Kay, R. J. and Israel, A. (1998) Complementation cloning of NEMO, a component of the IkappaB kinase (IKK) complex essential for NF-kappaB activation. […]

IL-1β: pro inflammatory cytokine (BD Biosciences) used as NF-κB pathway activating stimulus
FRET transfer efficiency between CFP and YFP: 21.7%

From US7842462B2, “Identification of substances that inhibit NEMO oligomerization” (Institut Pasteur, priority 2006, dated 2010)
